Assay results from PubChem BioAssay AID252 (DTP/NCI, 2004).
Values joined by “and” are separate entries in the source; they are usually repeats but may differ in a detail not shown here. Equal entries are not always repeated. Inconclusive results and toxic doses are left out.

Test system: BDF1 mice, intracerebral L1210 leukemia, survival T/C
Test: NCI In Vivo Anticancer Drug Screen. Data for tumor model L1210 Leukemia (intracerebral) in B6D2F1 (BDF1) mice
Settings: higher = longer survival
Description: The antitumor activity of compounds was measured in mice bearing transplantable tumors. Survival or tumor size were measured and the results are expressed as the measurement made in the treated group (T) divided by the measurement made in the vehicle treated control group (C). The tumor model used in this assay is L1210 Leukemia (intracerebral) in B6D2F1 (BDF1) mice

[1] = endpoint: median survival time, dose: 8.0 mg/kg/injection, schedule: Q01DX009 (ip), vehicle: water
[2] = endpoint: median survival time, dose: 16.0 mg/kg/injection, schedule: Q01DX009 (ip), vehicle: water
[3] = endpoint: median survival time, dose: 32.0 mg/kg/injection, schedule: Q01DX009 (ip), vehicle: water
[4] = endpoint: median survival time, dose: 64.0 mg/kg/injection, schedule: Q01DX009 (ip), vehicle: water

SMILES: CS(=O)(=O)Nc1ccc(Nc2c3ccccc3nc3cc([N+](=O)[O-])ccc23)cc1
- T/C (endpoint: mean survival time, dose: 1.25 mg/kg/injection, schedule: Q01DX009 (ip), vehicle: Klucel (hydroxypropylcellulose) (HPC)): 91 % of control
- T/C (endpoint: mean survival time, dose: 1.25 mg/kg/injection, schedule: Q01DX009 (sc), vehicle: Klucel (hydroxypropylcellulose) (HPC)): 106 % of control
- T/C (endpoint: mean survival time, dose: 2.5 mg/kg/injection, schedule: Q01DX009 (ip), vehicle: Klucel (hydroxypropylcellulose) (HPC)): 87 % of control
- T/C (endpoint: mean survival time, dose: 2.5 mg/kg/injection, schedule: Q01DX009 (sc), vehicle: Klucel (hydroxypropylcellulose) (HPC)): 97 % of control
- T/C (endpoint: mean survival time, dose: 3.12 mg/kg/injection, schedule: Q01DX001 (ip), vehicle: saline): 98 % of control
- T/C (endpoint: mean survival time, dose: 5.0 mg/kg/injection, schedule: Q01DX009 (ip), vehicle: Klucel (hydroxypropylcellulose) (HPC)): 89 % of control
- T/C (endpoint: mean survival time, dose: 5.0 mg/kg/injection, schedule: Q01DX009 (sc), vehicle: Klucel (hydroxypropylcellulose) (HPC)): 103 % of control
- T/C (endpoint: mean survival time, dose: 6.25 mg/kg/injection, schedule: Q01DX001 (ip), vehicle: saline): 98 % of control
- T/C (endpoint: mean survival time, dose: 10.0 mg/kg/injection, schedule: Q01DX009 (sc), vehicle: Klucel (hydroxypropylcellulose) (HPC)): 102 % of control
- T/C (endpoint: mean survival time, dose: 12.5 mg/kg/injection, schedule: Q01DX001 (ip), vehicle: saline): 101 % of control
- T/C (endpoint: mean survival time, dose: 25.0 mg/kg/injection, schedule: Q01DX001 (ip), vehicle: saline): 101 % of control
- T/C (endpoint: mean survival time, dose: 50.0 mg/kg/injection, schedule: Q01DX001 (ip), vehicle: saline): 90 % of control

SMILES: O=NN(CCCl)C(=O)Nc1ccc2c(c1)CCCC2
- T/C (endpoint: mean survival time, dose: 125.0 mg/kg/injection, schedule: Q01DX001 (ip), vehicle: carboxymethylcellulose (CMC)): 157 % of control
- T/C (endpoint: mean survival time, dose: 178.0 mg/kg/injection, schedule: Q01DX001 (ip), vehicle: carboxymethylcellulose (CMC)): 150 % of control
- T/C (endpoint: mean survival time, dose: 187.0 mg/kg/injection, schedule: Q01DX001 (ip), vehicle: carboxymethylcellulose (CMC)): 97 % of control
- T/C (endpoint: mean survival time, dose: 238.0 mg/kg/injection, schedule: Q01DX001 (ip), vehicle: carboxymethylcellulose (CMC)): 100 % of control

SMILES: O=NN(CCF)C(=O)Nc1c[nH]c(=O)[nH]c1=O
- T/C (endpoint: mean survival time, dose: 9.0 mg/kg/injection, schedule: Q01DX001 (ip), vehicle: carboxymethylcellulose (CMC)): 103 % of control
- T/C (endpoint: mean survival time, dose: 13.0 mg/kg/injection, schedule: Q01DX001 (ip), vehicle: carboxymethylcellulose (CMC)): 105 % of control
- T/C (endpoint: mean survival time, dose: 20.0 mg/kg/injection, schedule: Q01DX001 (ip), vehicle: carboxymethylcellulose (CMC)): 110 % of control

SMILES: C[C@H](CN1CC(=O)NC(=O)C1)N1CC(=O)NC(=O)C1
- T/C [1]: 107 % of control
- T/C [2]: 115 % of control and 116 % of control
- T/C [3]: 124 % of control
- T/C [4]: 123 % of control
- T/C (endpoint: median survival time, dose: 256.0 mg/kg/injection, schedule: Q01DX009 (ip), vehicle: water): 109 % of control and 95 % of control

SMILES: Nc1nc(=O)n(C2OC(CO)C(O)C2O)cc1F (stereo not drawn)
- T/C (endpoint: median survival time, dose: 1.0 mg/kg/injection, schedule: Q01DX009 (ip), vehicle: saline): 116 % of control
- T/C (endpoint: median survival time, dose: 2.0 mg/kg/injection, schedule: Q01DX009 (ip), vehicle: saline): 124 % of control
- T/C (endpoint: median survival time, dose: 4.0 mg/kg/injection, schedule: Q01DX009 (ip), vehicle: saline): 124 % of control
- T/C (endpoint: median survival time, dose: 8.0 mg/kg/injection, schedule: Q01DX009 (ip), vehicle: saline): 153 % of control
- T/C [1]: 173 % of control
- T/C (endpoint: median survival time, dose: 16.0 mg/kg/injection, schedule: Q01DX009 (ip), vehicle: saline): 179 % of control
- T/C [2]: 212 % of control
- T/C (endpoint: median survival time, dose: 32.0 mg/kg/injection, schedule: Q01DX009 (ip), vehicle: saline): 201 % of control
- T/C [3]: 234 % of control
- T/C (endpoint: median survival time, dose: 64.0 mg/kg/injection, schedule: Q01DX009 (ip), vehicle: saline): 228 % of control
- T/C [4]: 247 % of control
- T/C (endpoint: median survival time, dose: 128.0 mg/kg/injection, schedule: Q01DX009 (ip), vehicle: water): 89 % of control
- T/C (endpoint: median survival time, dose: 512.0 mg/kg/injection, schedule: Q01DX009 (ip), vehicle: saline): 98 % of control

SMILES: CS(=O)(=O)Nc1ccc(Nc2c3ccccc3nc3ccccc23)cc1
- T/C (endpoint: mean survival time, dose: 10.0 mg/kg/injection, schedule: Q01DX009 (ip), vehicle: saline): 104 % of control
- T/C (endpoint: mean survival time, dose: 10.0 mg/kg/injection, schedule: Q01DX009 (sc), vehicle: saline): 92 % of control
- T/C (endpoint: mean survival time, dose: 20.0 mg/kg/injection, schedule: Q01DX009 (ip), vehicle: saline): 101 % of control
- T/C (endpoint: mean survival time, dose: 20.0 mg/kg/injection, schedule: Q01DX009 (sc), vehicle: saline): 96 % of control
- T/C (endpoint: mean survival time, dose: 40.0 mg/kg/injection, schedule: Q01DX009 (ip), vehicle: saline): 96 % of control
- T/C (endpoint: mean survival time, dose: 40.0 mg/kg/injection, schedule: Q01DX009 (sc), vehicle: saline): 90 % of control
- T/C (endpoint: mean survival time, dose: 80.0 mg/kg/injection, schedule: Q01DX009 (sc), vehicle: saline): 96 % of control

SMILES: NC(=O)N(CCCl)N=O
- T/C (endpoint: mean survival time, dose: 1.2 mg/kg/injection, schedule: Q01DX001 (ip), vehicle: saline): 115 % of control
- T/C (endpoint: mean survival time, dose: 1.8 mg/kg/injection, schedule: Q01DX001 (ip), vehicle: saline): 112 % of control
- T/C (endpoint: mean survival time, dose: 3.6 mg/kg/injection, schedule: Q01DX001 (ip), vehicle: saline): 163 % of control
- T/C (endpoint: mean survival time, dose: 5.0 mg/kg/injection, schedule: Q01DX001 (ip), vehicle: carboxymethylcellulose (CMC)): 176 % of control and 187 % of control
- T/C (endpoint: mean survival time, dose: 7.2 mg/kg/injection, schedule: Q01DX001 (ip), vehicle: saline): 159 % of control and 229 % of control
- T/C (endpoint: mean survival time, dose: 7.5 mg/kg/injection, schedule: Q01DX001 (ip), vehicle: carboxymethylcellulose (CMC)): 108 % of control

SMILES: N=c1ccn2c(n1)OC1C(O)C(CO)OC12 (stereo not drawn)
- T/C (endpoint: mean survival time, dose: 50.0 mg/kg/injection, schedule: Q01DX009 (oral), vehicle: saline): 220 % of control
- T/C (endpoint: mean survival time, dose: 50.0 mg/kg/injection, schedule: Q08DX009 (ip), vehicle: water): 175 % of control
- T/C (endpoint: mean survival time, dose: 100.0 mg/kg/injection, schedule: Q01DX009 (oral), vehicle: saline): 228 % of control
- T/C (endpoint: mean survival time, dose: 100.0 mg/kg/injection, schedule: Q01DX009 (oral), vehicle: water): 186 % of control
- T/C (endpoint: mean survival time, dose: 100.0 mg/kg/injection, schedule: Q08DX009 (ip), vehicle: water): 196 % of control
- T/C (endpoint: mean survival time, dose: 200.0 mg/kg/injection, schedule: Q01DX009 (oral), vehicle: saline): 255 % of control
- T/C (endpoint: mean survival time, dose: 200.0 mg/kg/injection, schedule: Q01DX009 (oral), vehicle: water): 201 % of control
- T/C (endpoint: mean survival time, dose: 200.0 mg/kg/injection, schedule: Q08DX009 (ip), vehicle: water): 215 % of control and 258 % of control
- T/C (endpoint: mean survival time, dose: 300.0 mg/kg/injection, schedule: Q08DX009 (ip), vehicle: water): 232 % of control and 217 % of control
- T/C (endpoint: mean survival time, dose: 400.0 mg/kg/injection, schedule: Q01DX009 (oral), vehicle: saline): 193 % of control
- T/C (endpoint: mean survival time, dose: 400.0 mg/kg/injection, schedule: Q01DX009 (oral), vehicle: water): 223 % of control
- T/C (endpoint: mean survival time, dose: 400.0 mg/kg/injection, schedule: Q08DX009 (ip), vehicle: water): 285 % of control
- T/C (endpoint: median survival time, dose: 65.0 mg/kg/injection, schedule: Q01DX009 (ip), vehicle: water): 167 % of control
- T/C (endpoint: median survival time, dose: 100.0 mg/kg/injection, schedule: Q01DX009 (ip), vehicle: water): 196 % of control
- T/C (endpoint: median survival time, dose: 108.0 mg/kg/injection, schedule: Q01DX009 (ip), vehicle: water): 176 % of control
- T/C (endpoint: median survival time, dose: 200.0 mg/kg/injection, schedule: Q01DX009 (ip), vehicle: water): 223 % of control
- T/C (endpoint: median survival time, dose: 400.0 mg/kg/injection, schedule: Q01DX009 (ip), vehicle: water): 354 % of control

SMILES: N#[N+]c1cnc([O-])[nH]c1=O
- T/C (endpoint: mean survival time, dose: 5.0 mg/kg/injection, schedule: Q01DX015 (ip), vehicle: alkali diluted with saline): 102 % of control
- T/C (endpoint: mean survival time, dose: 7.7 mg/kg/injection, schedule: Q01DX015 (ip), vehicle: alkali diluted with saline): 101 % of control
- T/C (endpoint: mean survival time, dose: 11.5 mg/kg/injection, schedule: Q01DX015 (ip), vehicle: alkali diluted with saline): 106 % of control
- T/C (endpoint: mean survival time, dose: 12.0 mg/kg/injection, schedule: Q01DX001 (ip), vehicle: alkali diluted with saline): 97 % of control
- T/C (endpoint: mean survival time, dose: 15.0 mg/kg/injection, schedule: Q01DX Z (ip), vehicle: alkali diluted with saline): 101 % of control
- T/C (endpoint: mean survival time, dose: 19.0 mg/kg/injection, schedule: Q01DX001 (ip), vehicle: alkali diluted with saline): 102 % of control
- T/C (endpoint: mean survival time, dose: 20.0 mg/kg/injection, schedule: Q01DX Z (ip), vehicle: alkali diluted with saline): 97 % of control
- T/C (endpoint: mean survival time, dose: 25.0 mg/kg/injection, schedule: Q01DX Z (ip), vehicle: alkali diluted with saline): 92 % of control
- T/C (endpoint: mean survival time, dose: 29.0 mg/kg/injection, schedule: Q01DX001 (ip), vehicle: alkali diluted with saline): 106 % of control
- T/C (endpoint: mean survival time, dose: 40.0 mg/kg/injection, schedule: Q01DX Z (ip), vehicle: alkali diluted with saline): 91 % of control

SMILES: CC(=O)OCC1OC(n2cnc3c(=S)nc(N)[nH]c32)C(OC(C)=O)C1OC(C)=O (stereo not drawn)
- T/C (endpoint: mean survival time, dose: 37.5 mg/kg/injection, schedule: Q01DX Z (ip), vehicle: other): 122 % of control
